Consider 14 molecules from PubChem BioAssay AID624027 (Broad Institute, 2012).

The experiment has as its target Glycogen synthase kinase-3 beta (Homo sapiens) (UniProt P49841). Nature of the experiment: GSK3beta inhibitors at high ATP, SAR follow-up, mechanism study for GSK3beta inhibitor project, biochemical, varied ATP levels, ADP-Glo luminescence, dry powder samples (AID 624027). As to conditions: GST-GSK3beta kinase, 100 uM ATP; for activity change, negative = inhibition: at 46 µM (top of the series).

Each structure is given as a SMILES string. Active and inactive are the calls of the source.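 The calls were made as follows: active = decreasing luminescence curve with half-maximal concentration at most twice the top tested dose, in every replicate run; inconclusive = replicate test runs disagree in their calls; inactive = every replicate run inactive, including responses in the opposite direction.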

Sequence of Glycogen synthase kinase-3 beta (Homo sapiens) (P49841 whole entry, looked up): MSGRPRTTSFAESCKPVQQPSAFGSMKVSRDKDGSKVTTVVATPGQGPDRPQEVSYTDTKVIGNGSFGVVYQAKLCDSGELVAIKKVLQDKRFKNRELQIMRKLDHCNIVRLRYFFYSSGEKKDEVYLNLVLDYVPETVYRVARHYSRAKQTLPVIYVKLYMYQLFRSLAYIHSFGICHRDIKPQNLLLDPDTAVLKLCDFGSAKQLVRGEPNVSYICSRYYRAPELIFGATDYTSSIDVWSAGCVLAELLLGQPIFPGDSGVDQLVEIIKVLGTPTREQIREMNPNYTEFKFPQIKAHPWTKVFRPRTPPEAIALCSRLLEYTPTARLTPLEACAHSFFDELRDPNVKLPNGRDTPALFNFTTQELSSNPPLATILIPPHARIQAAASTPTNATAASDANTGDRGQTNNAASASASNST

By AC50 is commonly meant the midpoint of the concentration-response curve, whichever way the signal moves. For `Cc1[nH]nc2c1[C@@H](c1ccccc1C(F)(F)F)C1=C(CC(C)(C)CC1=O)N2`, the AC50 was 231 nM.
In the case of `CNC(=O)c1cn(-c2ccccc2)nc1-c1ccc(OC)cc1`, the “activity change, negative = inhibition” value was “inactive”.
`Cc1[nH]nc2c1C(c1cccc3nonc13)C1=C(CC(C)(C)CC1=O)N2` (centres undefined): the AC50 is 231 nM.
The same measure, in the same setting: to `CC1(C)CC(=O)/C(=C\c2ccccc2C(F)(F)F)C(=Nc2cc(C(F)(F)F)[nH]n2)C1` belongs 25200 nM; to `COc1ccccc1[C@@H]1C2=C(CC(C)(C)CC2=O)Nc2n[nH]c(C(F)(F)F)c21`, 143 nM.
On the same count and under the same terms, to `CC1(C)CC(=O)C2=C(C1)Nc1n[nH]c(C(F)(F)F)c1C2c1cc(F)ccc1OC(F)(F)F` (centres undefined) belongs 2340 nM; to `CC1(C)CC(=O)/C(=C\c2cccc(F)c2C(F)(F)F)C(=Nc2cc(C(F)(F)F)[nH]n2)C1`, 13200 nM; to `Cc1[nH]nc2c1[C@H](c1ccccc1C(F)(F)F)C1=C(CC(C)(C)CC1=O)N2`, 31900 nM.
On the same count and under the same terms, the same measure for `CC1(C)CC(=O)C2=C(C1)Nc1n[nH]c(C(F)(F)F)c1C2c1ccccc1F` (centres undefined): 932 nM; for `Cc1[nH]nc2c1C(c1ccc(C#N)cc1)C1=C(CC(C)(C)CC1=O)N2` (centres undefined): 39800 nM.
Turning to `CN(C)Cc1cn(-c2ccccc2)nc1-c1ccccc1`, the “activity change, negative = inhibition” value was “inactive”.
For the molecule `CC1(C)CC(=O)C2=C(C1)Nc1n[nH]c(C(F)(F)F)c1C2c1ccccc1` (centres undefined), the AC50 was 103 nM.
The same measure, in the same setting: the same measure for `CC1(C)CC(=O)C2=C(C1)Nc1n[nH]c(C(F)(F)F)c1C2c1cc(F)ccc1C(F)(F)F` (centres undefined): 209 nM; for `CC1(C)CC(=O)C2=C(C1)Nc1n[nH]c(C(F)(F)F)c1C2(C)c1ccccc1` (centres undefined): 41 nM.
